Measurements published in the NIST ThermoML archive (doi:10.1021/acs.jced.8b00601).
± gives the expanded uncertainty stated by the source.

Experiment: activity coefficient (dimensionless); of the first substance listed, at infinite dilution; xn = mol fraction of the nth substance listed
Settings: 101.33 kPa, Liquid, Chromatography, x1 = 0

With `ClC(Cl)(Cl)Cl` [tetrachloromethane] + O=S(=O)([N-]S(=O)(=O)C(F)(F)F)C(F)(F)F.O=S(=O)([N-]S(=O)(=O)C(F)(F)F)C(F)(F)F.O=S(=O)([N-]S(=O)(=O)C(F)(F)F)C(F)(F)F.c1ccc2cc(-n3cc[n+](Cc4cc(C[n+]5ccn(-c6ccc7ccccc7c6)c5)cc(C[n+]5ccn(-c6ccc7ccccc7c6)c5)c4)c3)ccc2c1 as the molecule, how does the activity coefficient (313 K) read?
Its activity coefficient is 4.72 ± 0.51.

And the activity coefficient (323 K)?
The activity coefficient was 4.27 ± 0.47.

What about the activity coefficient (333 K) of the same molecule?
The activity coefficient was 3.29 ± 0.38.

What about the activity coefficient (343 K) of the same molecule?
Its activity coefficient is 2.6 ± 0.31.

Which results are given for `Cc1ccccc1` [toluene] + O=S(=O)([N-]S(=O)(=O)C(F)(F)F)C(F)(F)F.O=S(=O)([N-]S(=O)(=O)C(F)(F)F)C(F)(F)F.O=S(=O)([N-]S(=O)(=O)C(F)(F)F)C(F)(F)F.c1ccc2cc(-n3cc[n+](Cc4cc(C[n+]5ccn(-c6ccc7ccccc7c6)c5)cc(C[n+]5ccn(-c6ccc7ccccc7c6)c5)c4)c3)ccc2c1?
activity coefficient (313 K): 3.82 ± 0.43; activity coefficient (323 K): 3.05 ± 0.35; activity coefficient (333 K): 2.42 ± 0.29; activity coefficient (343 K): 1.69 ± 0.23
